Source: US11419852B2, “Beta-lactam compounds or salts thereof for use in long-acting prevention or treatment of a glucose metabolism disorder” (GLYCOLYSIS BIOMED CO., LTD., priority 2019, dated 2022)
Marks after values point to notes of the source that are not given here.

Key:
Assay type in all cases: in vivo
[1] = Food and water intake of mice; conditions: Ex 3: db/db mice, daily dosing 3 weeks at doses of Table 10
Description: Four to five weeks old db/db mice (BKS.Cg-Dock7^m+/+Lepr^db/JNarl) and m/m mice (BKS.Cg-Dock7^m+/Dock7^m+) were obtained from National Laboratory Animal Center ([…], Taiwan). […] PMI Nutrition International, Brentwood, Mo.) and water ad libitum. […] The mouse body weight (bw) and the amounts of water and food intake were recorded weekly for the entire study period.

db/db mice [2] = assay: Plasma biochemical parameters (AST, ALT, BUN, Cr, HbA1c); conditions: Ex 3: db/db mice, daily dosing 3 weeks at doses of Table 10; week 9
Description: Inflammatory markers such as serum aspartate aminotransferase (AST), alanine aminotransferase (ALT), blood urea nitrogen (BUN), creatinine (Cr), and hemoglobin Alc (HbAlc) were measured using a BMC-Hitachi 717 chemistry auto analyzer.

db/db mice [3] = assay: Histopathological assessment (H&E stain); conditions: Ex 2, metformin-treated vs ertapenem-treated mice
Excerpt: For histopathological assessment, all mice were sacrificed by 95% CO2 asphyxiation at the end of the study period. Their brain, liver, kidney, pancreas, and epididymal fat pads were removed, fixed in 10% phosphate-buffered formalin, and embedded in paraffin. Tissues embedded in paraffin were cut into […] sections that were then stained with hematoxylin-eosin (i.e., H&E stain).

db/db mice [4] = assay: Oral glucose tolerance test (OGTT); design: OGTT AUC: unit not given here
Description: Four to five weeks old db/db mice (BKS.Cg-Dock7^m+/+Lepr^db/JNarl) and m/m mice (BKS.Cg-Dock7^m+/Dock7^m+) were obtained from National Laboratory Animal Center ([…], Taiwan). […] PMI Nutrition International, Brentwood, Mo.) and water ad libitum. […] Blood was sampled from the tail vein, and FPG levels were measured and recorded as the basic blood glucose levels. […] The total area under the curve (AUC) in OGTT was plotted and calculated by the Area Under Coordinates Program (StatsToDo Server, Department of Obstetrics and Gynecology, Chinese University of Hong Kong).

db/db mice [5] = assay: Fasting plasma glucose (FPG) measurement; conditions: Ex 2 G3 db/db, Met oral 0.3 mg/g bw/day, dosing 6 weeks
Description: Four to five weeks old db/db mice (BKS.Cg-Dock7^m+/+Lepr^db/JNarl) and m/m mice (BKS.Cg-Dock7^m+/Dock7^m+) were obtained from National Laboratory Animal Center (Nangang, Taipei, Taiwan). These animals were maintained in a facility with a 12-h dark-light cycle at 24±2° C. and 65±5% humidity and were provided food (No. 5001; PMI Nutrition International, Brentwood, Mo.) and water ad libitum. For experiments, the average body weight of m/m mice was approximately 20 g, and that of db/db mice was approximately 30 g.
For each mouse, blood was sampled from the tail vein and measured for FPG levels using a blood glucose meter (OneTouch UltraEasy, Johnson & Johnson, USA) at a predestined time point.

Compound: CN(C)C(=N)N=C(N)N [Met, metformin]
- Diet intake [1]: 6.2 ± 1^c g/mice/day
- Water intake [1]: 12.1 ± 1^d mL/mice/day
- ALT (db/db mice [2]): 116 ± 12^d U/L
- AST (db/db mice [2]): 194 ± 17^e U/L
- BUN (db/db mice [2]): 37 ± 1^b mg/dL
- Creatinine (db/db mice [2]): 0.517 ± 0.01^e mg/dL
- HbA1c (db/db mice [2]): 6.7 ± 0.2^e %
- Kidney histological changes (tubular degeneration and necrosis, mineralization, hyaline cast) (db/db mice [3]): more apparent
- Oral glucose tolerance (OGT) of db/db mice (db/db mice [4]; Ex 2, most time points (ertapenem: weeks 6 and 12)): no significant changes
- Level of OGTT (blood glucose) (db/db mice [4]; Ex 2 G3 db/db, Met oral 0.3 mg/g bw/day, dosing 6 weeks, Week 6, 0 min): 222 ± 30 mg/dL
- Level of OGTT (blood glucose) (db/db mice [4]; Ex 2 G3 db/db, Met oral 0.3 mg/g bw/day, dosing 6 weeks, Week 6, 15 min): 828 ± 33^bc
- Level of OGTT (blood glucose) (db/db mice [4]; Ex 2 G3 db/db, Met oral 0.3 mg/g bw/day, dosing 6 weeks, Week 6, 30 min): 832 ± 42^c
- Level of OGTT (blood glucose) (db/db mice [4]; Ex 2 G3 db/db, Met oral 0.3 mg/g bw/day, dosing 6 weeks, Week 6, 60 min): 710 ± 86^cd
- Level of OGTT (blood glucose) (db/db mice [4]; Ex 2 G3 db/db, Met oral 0.3 mg/g bw/day, dosing 6 weeks, Week 6, 120 min): 417 ± 42^cd
- Level of OGTT (blood glucose) (db/db mice [4]; Ex 2 G3 db/db, Met oral 0.3 mg/g bw/day, dosing 6 weeks, Week 12, 0 min): 267 ± 43^cd
- Level of OGTT (blood glucose) (db/db mice [4]; Ex 2 G3 db/db, Met oral 0.3 mg/g bw/day, dosing 6 weeks, Week 12, 15 min): 821 ± 47 mg/dL
- Level of OGTT (blood glucose) (db/db mice [4]; Ex 2 G3 db/db, Met oral 0.3 mg/g bw/day, dosing 6 weeks, Week 12, 30 min): 839 ± 40^cd
- Level of OGTT (blood glucose) (db/db mice [4]; Ex 2 G3 db/db, Met oral 0.3 mg/g bw/day, dosing 6 weeks, Week 12, 60 min): 741 ± 51^c
- Level of OGTT (blood glucose) (db/db mice [4]; Ex 2 G3 db/db, Met oral 0.3 mg/g bw/day, dosing 6 weeks, Week 12, 120 min): 564 ± 70^c
- Level of OGTT (blood glucose) (db/db mice [4]; Ex 2 G3 db/db, Met oral 0.3 mg/g bw/day, dosing 6 weeks, Week 16, 0 min): 215 ± 27 mg/dL
- Level of OGTT (blood glucose) (db/db mice [4]; Ex 2 G3 db/db, Met oral 0.3 mg/g bw/day, dosing 6 weeks, Week 16, 15 min): 611 ± 24 mg/dL
- Level of OGTT (blood glucose) (db/db mice [4]; Ex 2 G3 db/db, Met oral 0.3 mg/g bw/day, dosing 6 weeks, Week 16, 30 min): 703 ± 15 mg/dL
- Level of OGTT (blood glucose) (db/db mice [4]; Ex 2 G3 db/db, Met oral 0.3 mg/g bw/day, dosing 6 weeks, Week 16, 60 min): 637 ± 27 mg/dL
- Level of OGTT (blood glucose) (db/db mice [4]; Ex 2 G3 db/db, Met oral 0.3 mg/g bw/day, dosing 6 weeks, Week 16, 120 min): 444 ± 62^cd
- Level of OGTT (blood glucose) (db/db mice [4]; Ex 2 G3 db/db, Met oral 0.3 mg/g bw/day, dosing 6 weeks, Week 18, 0 min): 346 ± 58 mg/dL
- Level of OGTT (blood glucose) (db/db mice [4]; Ex 2 G3 db/db, Met oral 0.3 mg/g bw/day, dosing 6 weeks, Week 18, 15 min): 836 ± 58 mg/dL
- Level of OGTT (blood glucose) (db/db mice [4]; Ex 2 G3 db/db, Met oral 0.3 mg/g bw/day, dosing 6 weeks, Week 18, 30 min): 885 ± 73 mg/dL
- Level of OGTT (blood glucose) (db/db mice [4]; Ex 2 G3 db/db, Met oral 0.3 mg/g bw/day, dosing 6 weeks, Week 18, 60 min): 769 ± 55 mg/dL
- Level of OGTT (blood glucose) (db/db mice [4]; Ex 2 G3 db/db, Met oral 0.3 mg/g bw/day, dosing 6 weeks, Week 18, 120 min): 589 ± 67^bc
- OGTT AUC (db/db mice [4]; Ex 2 G3 db/db, Met oral 0.3 mg/g bw/day, dosing 6 weeks, week 6): 1288 ± 93^c
- OGTT AUC (db/db mice [4]; Ex 2 G3 db/db, Met oral 0.3 mg/g bw/day, dosing 6 weeks, week 12): 1391 ± 94^cd
- OGTT AUC (db/db mice [4]; Ex 2 G3 db/db, Met oral 0.3 mg/g bw/day, dosing 6 weeks, week 16): 1143 ± 55^c
- OGTT AUC (db/db mice [4]; Ex 2 G3 db/db, Met oral 0.3 mg/g bw/day, dosing 6 weeks, week 18): 1456 ± 85^b
- OGTT AUC (db/db mice [4]; Ex 3: db/db mice, daily dosing 3 weeks at doses of Table 10, Week 6 (stopped for 3 weeks)): 1603 ± 46^c
- OGTT AUC (db/db mice [4]; Ex 3: db/db mice, daily dosing 3 weeks at doses of Table 10, Week 9 (stopped for 6 weeks)): 1707 ± 43^f
- Average FPG level (db/db mice [5]; week 0): 160 ± 21^b
- Average FPG level (db/db mice [5]; week 3): 136 ± 13^b
- Average FPG level (db/db mice [5]; week 6): 222 ± 30^b
- Average FPG level (db/db mice [5]; week 9): 310 ± 25^d
- Average FPG level (db/db mice [5]; week 12): 267 ± 43^cd
- Average FPG level (db/db mice [5]; week 16): 215 ± 27^b
- Average FPG level (db/db mice [5]; week 18): 346 ± 50^b
